Data on eleven compounds can be found in patent publication US5225607A, “Insecticidal ethers” (Imperial Chemical Industries PLC, priority 1985, dated 1993).

What all share (format): in vivo
A short description of experiment [1]: Insecticidal evaluation of fraction 1 and fraction 3 (resolved isomers). Conditions: fraction 1 (92.9% isomer A) against fraction 3. How it is done:
(±)-1,1,1-trifluoro-2-(4-ethoxyphenyl)-3-(3-phenoxybenzyloxy)propane was resolved by high pressure liquid chromatography, using a Pirkle type 1A column (25 cm×4.9 mm) at -20° C., and n-hexane containing 1% by volume chloroform as eluent, at a flow rate of 0.7 cm^3 /minute. Elution was monitored using a UV detector at […]. Two isomers were detected:isomer A (retention time ca. 51 minutes) and isomer B (retention time ca. 54.6 minutes). A total of three fractions were collected.

Experiment [2] has as its system Musca domestica. Briefly: Insecticidal test, Musca domestica (houseflies - adults), contact. Conditions: 24 h, cotton wool/sugar, 1 day, read-out: grading of mortality, MD. The method in brief:
(§1)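 Compound dissolved in acetone, diluted with water containing 0.01% wetting agent to 500, 250 or 100 ppm. Pests on host plant or food; pests and/or medium treated. Mortality scored 1–3 days later, graded A (80–100%; 70–100% for S. exigua), B (50–79%; 50–69%), C (<50%).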

In the next experiment the test system is Spodoptera exigua. Briefly: Insecticidal test, Spodoptera exigua (lesser armyworm), residual. Conditions: 72 h, cotton leaf, 3 days, read-out: grading of mortality, SE. A digest of the protocol:
as §1

A further experiment has as its system Nilaparvata lugens. Briefly: Insecticidal test, Nilaparvata lugens (brown planthopper), contact. Conditions: 72 h, Cabbage leaf, 3 days, read-out: grading of mortality, NL. The method in brief:
as §1

For a further experiment, the system named is Tetranychus urticae. Description: Insecticidal/acaricidal test, Tetranychus urticae (spider mites - adult), contact. Conditions: 72 h, French bean leaf, 3 days, read-out: grading of mortality, TU. A digest of the protocol: as §1
In another experiment the test system is Blattella germanica. Briefly: Insecticidal test, Blattella germanica (cockroach nymphs), residual. Conditions: 72 h, plastic pot, 3 days, read-out: grading of mortality, BG. The method in brief: as §1
Another experiment relates to Myzus persicae. Description: Insecticidal test, Myzus persicae (aphids), contact. The following applies: 72 h, Chinese Cabbage leaf, 3 days, read-out: grading of mortality, MP. A digest of the protocol:
as §1

The test system of experiment [3] is Musca domestica. Description: Knockdown test, Musca domestica (houseflies - adults). Conditions: cotton wool/sugar, 4 hours, read-out: grading of knockdown, MD/KD. A digest of the protocol:
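Knockdown scores were banded: A 80–100%, B 50–79%, C <50%. Test preparations of 500, 250 or 100 ppm compound were made in acetone, then diluted with water containing 0.01% Lissapol NX, and applied to Musca domestica adults.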

Another experiment concerns Heliothis virescens. Description: whole plant or invertebrate. Conditions: in Gossypium hirsutum, 72 h, read-out: grading of mortality, HV. A digest of the protocol: as §1
The next experiment has as its system Diabrotica balteata. Description: Insecticidal test, Diabrotica balteata (rootworm larvae), residual. The following applies: 72 h, filter paper/maize seed, 3 days, read-out: grading of mortality, DB. The method in brief: as §1

A value given as a limit tells only on which side of the number the result lay.

On to `CCOc1ccc(C(COCc2cccc(Oc3ccccc3)c2)C(F)(F)F)cc1` (single isomer, unassigned) [isomer A, (+)-1,1,1-trifluoro-2-(4-ethoxyphenyl)-3-(3-p-henoxybenzyloxy)-propane], for which, in [1], the “insecticidal activity of isomer A relative to isomer B” value is on record as “substantially more active than isomer B”.

Regarding `CCOc1ccc(C(COCc2cccc(Cc3ccccc3)c2)C(F)(F)F)cc1` (stereo not shown) [Compound 12, 1,1,1-Trifluoro-2-(4-ethoxyphenyl)-3-(3-benzylbenzyloxy)propane], the mortality (as a rule, the percentage killed) at 500 ppm in the experiment with Musca domestica [2] is 80 to 100%; with Spodoptera exigua it was 70 to 100%; with Nilaparvata lugens it was 80 to 100%; with Tetranychus urticae, less than 50%; in the experiment with Blattella germanica, 80 to 100%; with Myzus persicae, 80 to 100%. The mortality at 500 ppm in the experiment on Heliothis virescens and with Diabrotica balteata was 80 to 100% each time. Moreover, in the experiment with Musca domestica [3], the pest or weed control at 500 ppm lay within 80 to 100%.

`CCOc1ccc([C@H](CO[C@@H](C#N)c2cccc(Oc3ccccc3)c2)C(F)(F)F)cc1` (racemic) [Compound 252, (2RS)-1,1,1-trifluoro-2-(4-ethoxyphenyl)-3-[(RS)-α-cyano-3-phenoxybenzyloxy]propane]: the mortality at 500 ppm is 80 to 100% in the experiment on Musca domestica [2]; 70 to 100% in the experiment on Spodoptera exigua; 80 to 100% with Nilaparvata lugens; less than 50% in the experiment on Tetranychus urticae; 50 to 79% in the experiment with Blattella germanica; 80 to 100% in the experiment on Myzus persicae. Besides, the mortality at 500 ppm with Heliothis virescens and in the experiment on Diabrotica balteata was 80 to 100% throughout. The pest or weed control at 500 ppm in the experiment on Musca domestica [3] was in the range of 80 to 100%.

With `FC(F)(F)C(Cl)(COCc1cccc(Oc2ccccc2)c1)c1ccc2c(c1)OCO2` (stereo not shown) [Compound 64, 1,1,1-Trifluoro-2-chloro-2-(3,4-methylenedioxyphenyl)-3-(3-phenoxybenzyloxy)propane], the mortality at 500 ppm is 50 to 79% with Musca domestica [2]; less than 50% with Spodoptera exigua; less than 50% in the experiment with Nilaparvata lugens; less than 50% in the experiment on Tetranychus urticae; less than 50% with Blattella germanica; less than 50% with Myzus persicae. For the same compound, the mortality at 500 ppm in the experiment with Heliothis virescens is 80 to 100%; in the experiment with Diabrotica balteata, less than 50%. For the same compound, the pest or weed control at 500 ppm in the experiment on Musca domestica [3] was in the range of 50 to 79%.

For the compound `Cc1ccc(C(O)(COCc2cccc(Oc3ccccc3)c2)C(F)(F)F)cc1` (stereo not shown) [Compound 120, 1,1,1-Trifluoro-2-(4-methylphenyl)-3-(3-phenoxybenzyloxy)propan-2-ol], the mortality at 500 ppm in the experiment on Musca domestica [2], in the experiment with Spodoptera exigua, in the experiment on Nilaparvata lugens, in the experiment with Tetranychus urticae, in the experiment on Blattella germanica and with Myzus persicae was less than 50% throughout. For the same compound, the mortality at 500 ppm with Heliothis virescens and in the experiment with Diabrotica balteata was less than 50% throughout. In addition, the pest or weed control at 500 ppm with Musca domestica [3] fell in the range of 80 to 100%.

For `CCOc1ccc(C(COCc2cccc(Oc3ccc(Cl)cc3)c2)C(F)(F)F)cc1F` (stereo not shown) [Compound 13, 1,1,1-Trifluoro-2-(3-fluoro-4-ethoxyphenyl)-3-(3-(4-chlorophenoxy)benzyloxy)propane], the mortality at 100 ppm is 80 to 100% in the experiment on Musca domestica [2]; 70 to 100% with Spodoptera exigua; 80 to 100% with Nilaparvata lugens; less than 50% in the experiment on Tetranychus urticae; 80 to 100% with Blattella germanica; 80 to 100% in the experiment with Myzus persicae. In addition, the mortality at 100 ppm in the experiment on Heliothis virescens was in the range of 80 to 100%; in the experiment with Diabrotica balteata it was 50 to 79%. Moreover, the pest or weed control at 100 ppm in the experiment on Musca domestica [3] lay in the range of 80 to 100%.

Turning to `Fc1ccc(COC=C(c2ccc(OC(F)(F)F)cc2)C(F)(F)F)cc1Oc1ccccc1` [Compound 462, 1,1,1-trifluoro-2-(4-trifluoromethoxyphenyl)-3-(3-phenoxy-4-fluorobenzyloxy)prop-2-ene], the mortality at 100 ppm with Musca domestica [2] is 80 to 100%; in the experiment with Spodoptera exigua, 70 to 100%; with Nilaparvata lugens, less than 50%; with Tetranychus urticae, less than 50%; in the experiment with Blattella germanica, 80 to 100%; in the experiment with Myzus persicae it was less than 50%. The mortality at 100 ppm in the experiment with Heliothis virescens lay within 80 to 100%; in the experiment with Diabrotica balteata, 50 to 79%. In addition, the pest or weed control at 100 ppm in the experiment with Musca domestica [3] fell in the range of 80 to 100%.

`OC(COCc1cccc(Oc2ccc(Cl)cc2)c1)(c1ccc(OC(F)(F)F)cc1)C(F)(F)F` (stereo not shown) [Compound 135, 1,1,1-Trifluoro-2-(4-trifluoromethoxyphenyl)-3-(3-(4-chlorophenoxy)benzyloxy)propan-2-ol]: the mortality at 250 ppm with Musca domestica [2] was less than 50%; in the experiment on Spodoptera exigua it was 70 to 100%; in the experiment with Nilaparvata lugens, less than 50%; in the experiment with Tetranychus urticae, less than 50%; in the experiment on Blattella germanica, less than 50%; with Myzus persicae, less than 50%. Further, the values for the mortality at 250 ppm in the experiment with Heliothis virescens and in the experiment on Diabrotica balteata were 80 to 100% and less than 50%, respectively. Besides, the pest or weed control at 250 ppm with Musca domestica [3] was 80 to 100%.

Take `COCc1ccc(C(COCc2cccc(Oc3ccc(Cl)cc3)c2)C(F)(F)F)cc1` (stereo not shown) [Compound 23, 1,1,1-Trifluoro-2-(4-methoxymethylphenyl)-3-(3-(4-chlorophenoxy)benzyloxy)propane]: the mortality at 500 ppm in the experiment with Musca domestica [2] was 50 to 79%; with Spodoptera exigua, 70 to 100%; in the experiment with Nilaparvata lugens, 80 to 100%; in the experiment with Tetranychus urticae, less than 50%; in the experiment on Blattella germanica, less than 50%; with Myzus persicae it was 50 to 79%. The mortality at 500 ppm in the experiment with Heliothis virescens was less than 50%; in the experiment with Diabrotica balteata, 80 to 100%. Besides, in the experiment with Musca domestica [3], the pest or weed control at 500 ppm is 80 to 100%.

In the case of `CCOc1ccc(C(COCc2cccc(Oc3ccc(F)cc3F)c2)C(F)(F)F)cc1` (stereo not shown) [Compound 10, 1,1,1-Trifluoro-2-(4-ethoxyphenyl)-3-(3-(2,4-difluorophenoxy)benzyloxy)propane], the mortality at 250 ppm is 80 to 100% in the experiment on Musca domestica [2]; 70 to 100% with Spodoptera exigua; 80 to 100% with Nilaparvata lugens; less than 50% with Tetranychus urticae; 80 to 100% with Blattella germanica; 50 to 79% in the experiment with Myzus persicae. Also, the mortality at 250 ppm with Heliothis virescens and with Diabrotica balteata was 80 to 100% throughout. For the same compound, the pest or weed control at 250 ppm with Musca domestica [3] lay in the range of 80 to 100%.

As for `CC(C)(C)c1ccc(C(COCc2ccc(F)c(Oc3ccccc3)c2)C(F)(F)F)cc1` (stereo not shown) [Compound 21, 1,1,1-Trifluoro-2-(4-t-butylphenyl)-3-(3-phenoxy-4-fluorobenzyloxy)propane], the mortality at 500 ppm with Musca domestica [2] was 80 to 100%; in the experiment with Spodoptera exigua, 70 to 100%; in the experiment with Nilaparvata lugens, less than 50%; in the experiment on Tetranychus urticae, 80 to 100%; with Blattella germanica it was 50 to 79%; in the experiment with Myzus persicae, 80 to 100%. Also, the mortality at 500 ppm in the experiment with Heliothis virescens and in the experiment with Diabrotica balteata was 80 to 100% each time. Moreover, the pest or weed control at 500 ppm with Musca domestica [3] fell in the range of 80 to 100%.
